Reference: patent US20250109127A1, “METHODS OF USE OF PHENOXYPROPYLAMINE COMPOUNDS TO TREAT DEPRESSION” (Minerva Neurosciences, Inc., priority 2013, published 2025)
“And” between values parts separate entries of the source, which are not always exact repeats. Identical values can stand only once. Counter-ions that a name gives are not always drawn.

Tested on: 5-HIAA release in the rat prefrontal cortex
Experiment: Microdialysis: 5-HIAA release in prefrontal cortex after I.P. administration
Type: in vivo
Settings: for 5-HIAA release (% of basal levels) measured in dialysates, MEAN / 5-HIAA (% of respective basal) MEAN: n = 8; for 5-HIAA release (% of basal levels) measured in dialysates: individual animals, hydrochloride, 3 mg/kg; for 5-HIAA (% of respective basal) MEAN: SON-117 group 0.1 mg/kg I.P.
Experimental: The aim of the study was to evaluate, using microdialysis, the effects of an intraperitoneal (I.P.) administration in rats of three different doses of SON-117 on dopamine and its metabolites, serotonin and its metabolite (5-HIAA), and norepinephrine levels in prefrontal cortex.
Thirty-two adult male Wistar rats were used for the whole study (4 groups of eight animals planned for the study, Table 1).
Surgery was performed on rats weighing about 300 g at the beginning of the experiments. Rats were anaesthetized with Ketamine (50 mg/kg) & Xylazine (15 mg/kg) by intramuscular administration. The animals were placed in a stereotaxic apparatus in the flat-skull position at a constant setting of −3.3 mm between ear bars and the incisor bar. The animals were treated with a local anesthesic (xylocaine 1%, Astra Zeneca) and an analgesic (Temgesic, from Schering Plough, 0.05 mg/kg, s.c.). A rostrocaudal midline incision was made with a lancet to expose the dorsal skull surface. The “stereotaxic zero” was defined by the Bregma in accordance with Paxinos and Watson's atlas (1986). A hole was drilled in the skull with a drill and the meninges were pierced with a sterile needle to implant a CMA12 guide cannula which later received the dialysis probe.
Coordinates used for implanting guide cannula in prefrontal cortex from Bregma were anteroposterior 3.7 mm, mediolateral 0.8 mm, and dorsoventral −2 mm (top of the probe was at −5 mm). The guide cannula was fixed to the skull with two stainless steel screws (1.88 mm outside diameter) anchored. An application of dental cement was added. A plastic collar allowed each animal to be tethered to a Swivel assembly of the CMA 120 awake animal system. Following surgery, rats were kept in individual cages and allowed to recover for a minimum of 3-5 days before the experimentation. The rats were handled and put in plastic bowl for 10 min at least every day to habituate the animals to their new environment for the dialysis. An I.P. administration with saline was also performed every day.
Dialysis probes (CMA12/3 mm, membrane, 20 kD cut-off, Carnegie Medicine, Stockholm, Sweden), were carefully washed before inserting into the guide cannula. The wash was performed with the artificial cerebrospinal fluid (aCSF) medium (NaCl 147 mM, KCl 2.7 mM, CaCl2 1.2 mM, MgCl2 0.85 mM) at room temperature. The dialysis system was then equilibrated at 20° C. at a perfusion rate of 1 μl/min with a Carnegie pump (CMA100). All catheters (FEP tubing, internal volume of 1.2 μl/10 cm, and tubing adaptors) used for microdialysis were treated in the same conditions.
The probes duly prepared were inserted into the guide cannula and the CMA120 Swivel assembly secured to the animal using a plastic collar. Flow through the dialysis probe with aCSF was maintained at a rate of 1 μl/min during the whole experimentation. The first four fractions (corresponding to 2 hours) were discarded to avoid the effects of parenchymal disturbance and to ensure that an approximate steady-state level was reached. Fractions were then collected over a period of 8.5 h during which time the animals remained quiet. The dialysates were automatically collected with an autosampler (microfraction collector CMA 140, Carnegie Medicin) and stored at −80° C. until analysis. […] Perfusion was then maintained for 7 hours with aCSF. The dialysates (30 μl) were collected into 300 μl vials, transferred into dry ice and then kept frozen (−80° C.) until analysis. Frozen samples were shipped to a partner for analysis. At the end of the microdialysis study, a PBS with colored ink was perfused through the probe in order to visualize the dialyzed area.
Catecholamine assay: Concentrations of dopamine, DOPAC, HVA, 5-HIAA, 5-HT, and norepinephrin were determined for each sample by HPLC coupled with electrochemical detection.

[1] = SON-117 3 mg/kg IP, T1 h 30-T2 h
[2] = SON-117 3 mg/kg IP, T1 h-T1 h 30
[3] = SON-117 3 mg/kg IP, T2 h 30-T3 h
[4] = SON-117 3 mg/kg IP, T2 h-T2 h 30
[5] = SON-117 3 mg/kg IP, T3 h 30-T4 h
[6] = SON-117 3 mg/kg IP, T3 h-T3 h 30
[7] = SON-117 3 mg/kg IP, T4 h 30-T5 h
[8] = SON-117 3 mg/kg IP, T4 h-T4 h 30
[9] = SON-117 3 mg/kg IP, T5 h 30-T6 h
[10] = SON-117 3 mg/kg IP, T5 h-T5 h 30
[11] = SON-117 3 mg/kg IP, T6 h 30-T7 h
[12] = SON-117 3 mg/kg IP, T6 h-T6 h 30

## Cc1nnc(-c2cc3c(OC[C@@H](O)CN4CCC(c5ccc(Cl)c(Cl)c5)CC4)cccc3o2)o1 [SON-117, (S)-1-(4-(3,4-dichlorophenyl)piperidino)-3-(2-(5-methyl-1,3,4-oxadiazol-2-yl)benzo(b)furan-4-yloxy)-2-propanol hydrochloride]
SON-117 3 mg/kg IP, T0-T30 min
  5-HIAA release (% of basal levels) measured in dialysates, MEAN: 100.01 % of basal levels
SON-117 3 mg/kg IP, T30-T1 h
  5-HIAA release (% of basal levels) measured in dialysates, MEAN: 103.84 % of basal levels
  5-HIAA release (% of basal levels) measured in dialysates: 107.55 % of basal levels and 89.33 % of basal levels and 88.65 % of basal levels and 110.35 % of basal levels and 117.87 % of basal levels and 100.51 % of basal levels and 111.18 % of basal levels and 105.33 % of basal levels
[1]
  5-HIAA release (% of basal levels) measured in dialysates, MEAN: 88.78 % of basal levels
  5-HIAA release (% of basal levels) measured in dialysates: 94.24 % of basal levels and 92.41 % of basal levels and 78.82 % of basal levels and 101.67 % of basal levels and 75.13 % of basal levels and 85.33 % of basal levels and 91.45 % of basal levels and 91.21 % of basal levels
[2]
  5-HIAA release (% of basal levels) measured in dialysates, MEAN: 98.52 % of basal levels
  5-HIAA release (% of basal levels) measured in dialysates: 108.67 % of basal levels and 95.26 % of basal levels and 83.80 % of basal levels and 110.78 % of basal levels and 108.78 % of basal levels and 87.31 % of basal levels and 96.27 % of basal levels and 97.27 % of basal levels
[3]
  5-HIAA release (% of basal levels) measured in dialysates, MEAN: 84.99 % of basal levels
  5-HIAA release (% of basal levels) measured in dialysates: 110.25 % of basal levels and 75.66 % of basal levels and 71.07 % of basal levels and 93.25 % of basal levels and 73.18 % of basal levels and 83.94 % of basal levels and 86.24 % of basal levels and 86.32 % of basal levels
[4]
  5-HIAA release (% of basal levels) measured in dialysates, MEAN: 85.83 % of basal levels
  5-HIAA release (% of basal levels) measured in dialysates: 99.74 % of basal levels and 84.01 % of basal levels and 68.40 % of basal levels and 89.07 % of basal levels and 81.80 % of basal levels and 77.11 % of basal levels and 98.05 % of basal levels and 88.46 % of basal levels
[5]
  5-HIAA release (% of basal levels) measured in dialysates, MEAN: 82.25 % of basal levels
  5-HIAA release (% of basal levels) measured in dialysates: 103.09 % of basal levels and 75.36 % of basal levels and 71.57 % of basal levels and 91.17 % of basal levels and 72.73 % of basal levels and 78.31 % of basal levels and 82.53 % of basal levels and 83.23 % of basal levels
[6]
  5-HIAA release (% of basal levels) measured in dialysates, MEAN: 83.71 % of basal levels
  5-HIAA release (% of basal levels) measured in dialysates: 100.53 % of basal levels and 78.33 % of basal levels and 73.76 % of basal levels and 91.10 % of basal levels and 69.55 % of basal levels and 76.15 % of basal levels and 84.48 % of basal levels and 95.78 % of basal levels
[7]
  5-HIAA release (% of basal levels) measured in dialysates, MEAN: 75.41 % of basal levels
  5-HIAA release (% of basal levels) measured in dialysates: 90.13 % of basal levels and 63.71 % of basal levels and 68.51 % of basal levels and 75.52 % of basal levels and 72.02 % of basal levels and 83.31 % of basal levels and 83.67 % of basal levels and 66.44 % of basal levels
[8]
  5-HIAA release (% of basal levels) measured in dialysates, MEAN: 77.54 % of basal levels
  5-HIAA release (% of basal levels) measured in dialysates: 91.08 % of basal levels and 55.23 % of basal levels and 70.28 % of basal levels and 91.20 % of basal levels and 65.52 % of basal levels and 74.09 % of basal levels and 86.17 % of basal levels and 86.73 % of basal levels
[9]
  5-HIAA release (% of basal levels) measured in dialysates, MEAN: 71.99 % of basal levels
  5-HIAA release (% of basal levels) measured in dialysates: 82.54 % of basal levels and 68.32 % of basal levels and 64.58 % of basal levels and 71.77 % of basal levels and 60.86 % of basal levels and 67.49 % of basal levels and 79.74 % of basal levels and 80.63 % of basal levels
[10]
  5-HIAA release (% of basal levels) measured in dialysates, MEAN: 72.53 % of basal levels
  5-HIAA release (% of basal levels) measured in dialysates: 84.10 % of basal levels and 66.07 % of basal levels and 66.30 % of basal levels and 74.75 % of basal levels and 64.08 % of basal levels and 74.08 % of basal levels and 79.04 % of basal levels and 71.85 % of basal levels
[11]
  5-HIAA release (% of basal levels) measured in dialysates, MEAN: 73.41 % of basal levels
  5-HIAA release (% of basal levels) measured in dialysates: 83.14 % of basal levels and 67.51 % of basal levels and 58.65 % of basal levels and 82.71 % of basal levels and 65.19 % of basal levels
[12]
  5-HIAA release (% of basal levels) measured in dialysates, MEAN: 69.60 % of basal levels
  5-HIAA release (% of basal levels) measured in dialysates: 74.73 % of basal levels and 64.32 % of basal levels and 54.46 % of basal levels and 81.53 % of basal levels and 68.15 % of basal levels and 73.95 % of basal levels and 70.08 % of basal levels
SON-117 3 mg/kg IP, T-30 min-T0 (pre-administration)
  5-HIAA release (% of basal levels) measured in dialysates, MEAN: 102.90 % of basal levels
SON-117 3 mg/kg IP, T-1 h 30-T-1 h (pre-administration)
  5-HIAA release (% of basal levels) measured in dialysates, MEAN: 94.73 % of basal levels
SON-117 3 mg/kg IP, T-1 h-T-30 min (pre-administration)
  5-HIAA release (% of basal levels) measured in dialysates, MEAN: 102.37 % of basal levels
SON-117 3 mg/kg IP, from 2 h to 7 h
  5-HIAA concentration in prefrontal cortex, significant and stable decrease, max.: 72%
SON-117 3 mg/kg, at 3 h and 3.5 h
  levels of 5-HIAA compared to the citalopram treated group (significant): higher
T0-T30 min
  5-HIAA (% of respective basal) MEAN: 94.78 % of respective basal
T30-T1 h
  5-HIAA (% of respective basal) MEAN: 114.88 % of respective basal
T1 h 30-T2 h
  5-HIAA (% of respective basal) MEAN: 102.18 % of respective basal
T1 h-T1 h 30
  5-HIAA (% of respective basal) MEAN: 119.57 % of respective basal
T2 h 30-T3 h
  5-HIAA (% of respective basal) MEAN: 94.10 % of respective basal
T2 h-T2 h 30
  5-HIAA (% of respective basal) MEAN: 92.09 % of respective basal
T3 h 30-T4 h
  5-HIAA (% of respective basal) MEAN: 94.62 % of respective basal
T3 h-T3 h 30
  5-HIAA (% of respective basal) MEAN: 92.14 % of respective basal
T4 h 30-T5 h
  5-HIAA (% of respective basal) MEAN: 97.11 % of respective basal
T4 h-T4 h 30
  5-HIAA (% of respective basal) MEAN: 108.99 % of respective basal
T5 h 30-T6 h
  5-HIAA (% of respective basal) MEAN: 90.37 % of respective basal
T5 h-T5 h 30
  5-HIAA (% of respective basal) MEAN: 96.07 % of respective basal
T6 h 30-T7 h
  5-HIAA (% of respective basal) MEAN: 92.61 % of respective basal
T6 h-T6 h 30
  5-HIAA (% of respective basal) MEAN: 92.22 % of respective basal
T-30 min-T0 (before administration)
  5-HIAA (% of respective basal) MEAN: 101.47 % of respective basal
T-1 h 30-T-1 h (before administration)
  5-HIAA (% of respective basal) MEAN: 98.52 % of respective basal
T-1 h-T-30 min (before administration)
  5-HIAA (% of respective basal) MEAN: 100.01 % of respective basal
